Source: article PMC7949122 (The Journal of Biological Chemistry, 2021)
Non-standard residues stand in square brackets, D forms with d. Residues, ends and D or L forms follow the SMILES beside them. Hyp = O=C(O)[C@@H]1C[C@@H](O)CN1; 2Thi = N[C@@H](Cc1cccs1)C(=O)O; Gly(N-cHex) = O=C(O)CNC1CCCCC1

Experiments:
Format in all cases: cell-based
[1] = target: T1, mutant human B2R(Ø) lacking AltB2R expression (Gαq) (Homo sapiens, UniProt P30411); experiment: BRET G protein coupling Gαq-RLuc2/GFP10-Gγ1, B2R(Ø)-transfected HEK293A cells; details: HEK293-A; relative to maximum B2R-induced BRET response; mean ± SD, n = 3; read-out: Emax, Gαq/Gγ1 dissociation, B2R(Ø)
T1 construct: expressed in transfected cells; host or cells: HEK293A
T1 sequence (P30411 1-391): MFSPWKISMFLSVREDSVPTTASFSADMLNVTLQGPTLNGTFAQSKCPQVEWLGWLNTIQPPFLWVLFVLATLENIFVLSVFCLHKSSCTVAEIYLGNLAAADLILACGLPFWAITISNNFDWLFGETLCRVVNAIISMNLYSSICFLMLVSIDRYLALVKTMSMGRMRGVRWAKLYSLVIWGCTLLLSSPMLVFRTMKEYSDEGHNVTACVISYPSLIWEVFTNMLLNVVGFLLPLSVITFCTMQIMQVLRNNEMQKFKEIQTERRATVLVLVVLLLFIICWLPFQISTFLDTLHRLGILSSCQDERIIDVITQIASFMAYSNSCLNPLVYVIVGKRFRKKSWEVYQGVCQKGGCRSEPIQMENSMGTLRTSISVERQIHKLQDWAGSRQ
Source text: (§1) To test this hypothesis, we used live-cell bioluminescence resonance energy transfer (BRET) measurements to monitor the activation of G proteins by B2R. HEK293A cells were cotransfected with vectors coding for Gαq-RlucII or Gαi2/3-RlucII, Gβ, GFP10-Gγ1, and B2R or B2R^(Ø). In this experimental setting, the dissociation of Gαq-RlucII or Gαi2/3-RlucII from GFP10-Gγ1 results in a decrease of BRET signals. BRET data in Figure 6, A–C are presented relative to the maximum B2R-induced BRET response.
(§2) D, β-arrestin2 recruitment at the plasma membrane after stimulation with NG291 in HEK293A cells transfected with B2R and B2R^(Ø) by following BRET proximity of β-arr2-RLuc2 and rGFP-CAAX. […] Note.
(§3) BRET assays were performed as previously described ([56]). Briefly, HEK293A cells were grown in 96-well plates for 48 h after transient transfection with 10 μg BRET constructs (Gαq-RLuc2, Gβ1, and GFP10-Gγ1) (Gαi2-Rluc2, Gβ1, and GFP10-Gγ1) (Gαi3-Rluc2, Gβ1, and GFP10-Gγ1) (β-arrestin2-Rluc2 and rGFP-CAAX) and B2R or B2R^(Ø). Cells were washed twice with stimulation buffer (10 mM HEPES pH 7.4, 1 mM CaCl2, 0.5 mM MgCl2, 4.2 mM KCl, 146 mM NaCl, 5.5 mM glucose) and incubated for 1 h in 80 μl stimulation buffer at room temperature. […] BRET readings were collected in the […] (Rluc2) and […] (GFP10) windows, and BRET signal was calculated as a ratio of GFP10 on Rluc2. […]

human B2R (Gαi2) = target: T2, human B2R (Gαi2) (Homo sapiens, UniProt P30411); experiment: BRET G protein coupling Gαi2-RLuc2/GFP10-Gγ1, B2R-transfected HEK293A cells; details: HEK293-A; relative to maximum B2R-induced BRET response; mean ± SD, n = 4; ††p < 0.01 vs B2R(Ø); read-out: Emax, Gαi2/Gγ1 dissociation, B2R
T2 construct: expressed in transfected cells; host or cells: HEK293A
T2 sequence (P30411 1-391): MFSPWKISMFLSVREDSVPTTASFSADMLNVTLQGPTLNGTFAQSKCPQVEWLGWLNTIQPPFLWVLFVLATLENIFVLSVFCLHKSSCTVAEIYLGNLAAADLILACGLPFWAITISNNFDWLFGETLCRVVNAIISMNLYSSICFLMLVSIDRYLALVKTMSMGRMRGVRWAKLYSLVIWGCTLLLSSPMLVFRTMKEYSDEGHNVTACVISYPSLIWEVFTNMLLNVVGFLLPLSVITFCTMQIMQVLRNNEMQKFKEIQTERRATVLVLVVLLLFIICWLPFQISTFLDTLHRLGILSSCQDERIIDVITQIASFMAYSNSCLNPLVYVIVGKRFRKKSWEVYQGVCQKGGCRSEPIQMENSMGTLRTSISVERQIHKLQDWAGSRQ
Source text: as §1, §2, §3

[2] = target: T3, mutant human B2R(Ø) lacking AltB2R expression (Homo sapiens, UniProt P30411); experiment: Inositol phosphate (IP1) production, IP-One Gq assay (FRET), B2R(Ø)-transfected HEK293A cells (lacking AltB2R)
T3 construct: expressed in transfected cells; host or cells: HEK293A
T3 sequence (P30411 1-391): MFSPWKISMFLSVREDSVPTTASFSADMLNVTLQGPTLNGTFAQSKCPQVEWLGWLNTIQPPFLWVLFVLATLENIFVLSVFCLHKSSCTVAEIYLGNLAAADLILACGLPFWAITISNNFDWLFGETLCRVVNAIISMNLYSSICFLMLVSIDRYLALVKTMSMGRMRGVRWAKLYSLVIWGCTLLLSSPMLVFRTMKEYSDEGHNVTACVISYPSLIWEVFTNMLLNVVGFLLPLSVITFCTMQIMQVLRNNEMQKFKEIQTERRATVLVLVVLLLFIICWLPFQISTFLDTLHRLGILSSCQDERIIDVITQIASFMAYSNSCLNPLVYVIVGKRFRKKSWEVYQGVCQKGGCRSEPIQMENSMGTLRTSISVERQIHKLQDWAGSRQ
Description: This construct is a monocistronic version of B2R with the mutation C168T. In this mutant, a premature stop codon is introduced in the AltB2R coding sequence (Q11stop) in a manner synonymous for B2R (L56 L). Thus, the B2R encodes B2R and AltB2R, whereas mutant B2R^(Ø) encodes only B2R.
To consolidate the western blot data, AlphaLISA assays were also conducted in parallel in the same cell lines for the quantitative analyses of B2R-stimulated ERK1/2 phosphorylation (Fig. 5, B and C).
Quantitative densitometry analysis of pERK1/2 levels over time (top right). pERK/total ERK ratios were calculated for each time point.
HeLa, HEK293T, and HEK293A cells were maintained in Dulbecco's modified Eagle's medium (DMEM) containing 10% fetal bovine serum (FBS) (Wisent, #080-450) and 1% antibiotic-antimycotic (Wisent, #450-115-EL) under standard conditions. HEK293A cells were transiently transfected with the pcDNA3.1-vector containing the cDNA of human B2R or B2R^(Ø), using polyethylenimine (PEI) or JetPrime (Polyplus). HeLa cells were transiently transfected with B2R and AltB2R constructs using GeneCellin (Bulldog Bio Inc) or JetPrime (Polyplus) transfection reagent, as per the manufacturer’s instructions, and incubated 24 h at 37 °C, unless otherwise stated.
Inositol monophosphate (IP1) production was determined using the IP-One Gq assay kits (Cisbio, #62IPAPEB), according to the manufacturer's instructions. Fluorescence resonance energy transfer (FRET) signals were measured with a Tecan M1000 plate reader.

[3] = target: T4, mutant human B2R(Ø) lacking AltB2R expression (Gαi3) (Homo sapiens, UniProt P30411); experiment: BRET G protein coupling Gαi3-RLuc2/GFP10-Gγ1, B2R(Ø)-transfected HEK293A cells; details: HEK293-A; relative to maximum B2R-induced BRET response; mean ± SD, n = 4; read-out: Emax, Gαi3/Gγ1 dissociation, B2R(Ø)
T4 construct: expressed in transfected cells; host or cells: HEK293A
T4 sequence (P30411 1-391): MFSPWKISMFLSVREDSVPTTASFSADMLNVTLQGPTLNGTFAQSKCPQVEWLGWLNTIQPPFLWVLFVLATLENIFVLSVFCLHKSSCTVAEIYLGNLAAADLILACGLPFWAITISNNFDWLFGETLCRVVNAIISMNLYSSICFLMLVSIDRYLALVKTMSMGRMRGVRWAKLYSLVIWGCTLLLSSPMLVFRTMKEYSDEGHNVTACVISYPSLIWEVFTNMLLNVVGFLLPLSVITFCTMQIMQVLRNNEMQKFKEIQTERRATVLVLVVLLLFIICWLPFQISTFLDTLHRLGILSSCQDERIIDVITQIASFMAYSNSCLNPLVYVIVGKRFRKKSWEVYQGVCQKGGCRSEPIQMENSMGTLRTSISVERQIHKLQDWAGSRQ
Source text: as §1, §2, §3

human B2R (β-arrestin2) = target: T5, human B2R (β-arrestin2) (Homo sapiens, UniProt P30411); experiment: BRET β-arrestin2 recruitment at the plasma membrane, B2R-transfected HEK293A cells; details: HEK293-A
T5 construct: expressed in transfected cells; host or cells: HEK293A
T5 sequence (P30411 1-391): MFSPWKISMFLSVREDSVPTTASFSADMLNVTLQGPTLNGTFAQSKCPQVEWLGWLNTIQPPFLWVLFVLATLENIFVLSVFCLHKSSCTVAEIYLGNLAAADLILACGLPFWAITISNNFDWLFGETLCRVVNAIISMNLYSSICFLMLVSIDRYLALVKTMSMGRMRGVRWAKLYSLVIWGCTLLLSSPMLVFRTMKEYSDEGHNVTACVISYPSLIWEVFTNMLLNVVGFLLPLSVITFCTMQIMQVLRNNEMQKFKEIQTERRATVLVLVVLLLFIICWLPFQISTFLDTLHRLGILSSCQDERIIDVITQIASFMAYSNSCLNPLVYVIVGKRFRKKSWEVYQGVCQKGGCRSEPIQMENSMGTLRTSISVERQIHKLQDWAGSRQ
Source text: as §2
Since both G proteins and β-arrestins commonly participate in activation of MAPK pathways, we extended the BRET analysis to determine the effects of AltB2R on the efficacy of β-arrestin2 recruitment at the plasma membrane of HEK293A cells transfected with vectors coding for β-arrestin2-RLucII, rGFP-CAAX, and B2R or B2R^(Ø). BRET signals were monitored after addition of NG291.
as §3

human B2R (Gαq) = target: T6, human B2R (Gαq) (Homo sapiens, UniProt P30411); experiment: BRET G protein coupling Gαq-RLuc2/GFP10-Gγ1, B2R-transfected HEK293A cells; details: HEK293-A; relative to maximum B2R-induced BRET response; mean ± SD, n = 3; †p < 0.05 vs B2R(Ø); read-out: Emax, Gαq/Gγ1 dissociation, B2R
T6 construct: expressed in transfected cells; host or cells: HEK293A
T6 sequence (P30411 1-391): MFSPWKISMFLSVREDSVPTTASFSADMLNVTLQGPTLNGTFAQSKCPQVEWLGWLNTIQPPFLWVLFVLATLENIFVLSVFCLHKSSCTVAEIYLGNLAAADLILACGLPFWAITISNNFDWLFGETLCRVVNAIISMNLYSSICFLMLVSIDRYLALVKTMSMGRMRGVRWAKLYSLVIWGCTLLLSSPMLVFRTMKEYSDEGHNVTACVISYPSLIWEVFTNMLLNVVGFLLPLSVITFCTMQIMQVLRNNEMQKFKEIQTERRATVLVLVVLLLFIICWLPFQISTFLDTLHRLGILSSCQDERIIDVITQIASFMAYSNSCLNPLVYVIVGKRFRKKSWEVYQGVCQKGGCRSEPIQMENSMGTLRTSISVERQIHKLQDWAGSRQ
Source text: as §1, §2, §3

Emax [1]: 74 ± 8% | Emax (human B2R (Gαi2)): 100 ± 11% | Emax ([2]; HEK293-A, Emax in B2R(Ø) versus B2R cells, read-out: reduction of efficacy (Emax) for IP1 formation in cells without AltB2R expression): 22% | Emax [3]: 60 ± 22% | Emax (human B2R (β-arrestin2)): 100 ± 10% | Emax (human B2R (Gαq)): 100 ± 10%
SMILES: N=C(N)NCCC[C@H](NC(=O)[C@H](Cc1cccs1)NC(=O)CN(C(=O)[C@H](CO)NC(=O)[C@H](Cc1cccs1)NC(=O)CNC(=O)[C@@H]1C[C@@H](O)CN1C(=O)[C@@H]1CCCN1C(=O)[C@@H](N)CCCNC(=N)N)C1CCCCC1)C(=O)O [NG291, [Hyp^3,Thi^5,^NChg^7,Thi^8]-BK] (H-RP[Hyp]G[2Thi]S[Gly(N-cHex)][2Thi]R-OH; N-terminus and C-terminus assumed)
potency (EC50) for IP1 formation, B2R- versus B2R(Ø)-transfected cells ([2]; comparison of EC50 between B2R and B2R(Ø), unpaired t-test): no significant difference in potencies (EC50 values)
